Test results taken from US20240409886A1, “CULTURE MEDIUM COMPRISING DIPEPTIDES” (Evonik Operations GmbH, priority 2017, published 2024).
Residues, ends and D or L forms follow the SMILES beside them.

Test system: antibody-producing Chinese Hamster Ovary (CHO) cell (subclone DG44)
Assay: product titer (antibody concentration at the end of the cultivation)
Type: cell-based
Conditions: for rel. product titer [-]: end of cultivation, t=18h, relative units
Method: The effect of the Gln-Asn dipeptide on an antibody-producing Chinese Hamster Ovary (CHO) cell (subclone DG44; Life Technologies Corporation, Carlsbad, USA) was investigated using one-factor-at-a-time (OFAT) analysis.
The analysis was based on a comparison of the viable cell density and cell viability in a series of cell cultures, which were conducted at substantially identical culturing conditions, however, with increasing amounts of the Gln-Asn dipeptide in the medium. In order to keep the total amounts of Asn and Gln units (molar basis) in the various culture media constant, the molar concentration of free glutamine and free asparagine was reduced in accordance with the molar amount of the dipeptide added. A series of culture media having increasing amounts of the Gln-Asn dipeptide was prepared by mixing varying amounts of a Base Medium (comprising free Asn and Gln) and a Test Medium (comprising Asn-Gln dipeptide). A commercially available defined cell culture medium (TC-42, TeutoCell AG, Bielefeld, Germany) served as the Base Medium. (Any other suitable cell culture medium could be used.) A Test Medium (TC-42-EVO) was prepared so as to have identical nutrient concentrations compared to the Base Medium, however, instead of free Asn the Test Medium contained an equimolar amount (5.4 mM) of Gin-Asn dipeptide. Furthermore, the free Gln concentration in the Test Medium was set to a value such that the total concentration of Gln units in the Test Medium (i.e., free Gln and dipeptide-Gln) matched the concentration of free Gln in the Base Medium. All other nutrient concentrations in the Test Medium were the same as in the Base Medium. The Base Medium contained 1461.5 mg/l free Gln and 612 mg/l free Asn.
Six cell cultivations were then conducted with media containing varying amounts of the Test Medium and the Base Medium in the following proportions:
All media were set to pH 8.3. Salinity of the culture media was set to 285 mOsmol/kg with NaCl. All cultivations were conducted in on a rotary shaker under identical culture conditions (temperature, humidity, rpm, CO2, etc.), using standard cell culture methods. Three passages of a cell culture are conducted and viable cell density (VCD; 10^6 viable cells/ml) and cell viability (%) was followed in duplicate determinations, using […] determination.
Generally, an increased product titer is observed in all cultures including the Asn-containing dipeptide. In cultivations #2 and #3 (80% and 25% of the Asn present in form of the dipeptide, respectively) the product titer is more than 1.4-fold increased.

For `NC(=O)CC[C@H](N)C(=O)N[C@@H](CC(N)=O)C(=O)O` [Gln-Asn, L-glutaminyl-L-asparagine] (H-Gln-Asn-OH), the “rel. product titer [-]” value (0.3 mM dipeptide (#5)) was 1.01, the “rel. product titer [-]” value (0.8 mM dipeptide (#4)) was 1.11 and the “rel. product titer [-]” value (1.4 mM dipeptide (#3)) was 1.42. For the same compound, the “rel. product titer [-]” value (4.3 mM dipeptide (#2)) was 1.41, the “rel. product titer [-]” value (5.4 mM dipeptide (#1)) was 1.19 and the product titer increase (cultivation #2, 80% of the Asn present in form of the dipeptide) was “more than 1.4 fold”. For the same compound, the product titer increase (cultivation #3, 25% of the Asn present in form of the dipeptide) was “more than 1.4 fold” and the product titer (cultivations #1-#4, dipeptide 0.8 mM to 5.4 mM) was “Significantly improved”.
